Results on 8 molecules are retold here after US12686665B2, “Bicyclic fused ring derivative or salt thereof and pharmaceutical composition comprising same” (YUHAN CORPORATION, priority 2021, dated 2026).

Counter-ions that a name gives are not always drawn. Bounds are passed on as bounds.

What all share (type): biochemical
For assay [1], the target named is T1, recombinant human DAO (diamine oxidase) (Homo sapiens, UniProt P19801).
T1 construct: purchased R&D systems
T1 sequence (P19801 20-751): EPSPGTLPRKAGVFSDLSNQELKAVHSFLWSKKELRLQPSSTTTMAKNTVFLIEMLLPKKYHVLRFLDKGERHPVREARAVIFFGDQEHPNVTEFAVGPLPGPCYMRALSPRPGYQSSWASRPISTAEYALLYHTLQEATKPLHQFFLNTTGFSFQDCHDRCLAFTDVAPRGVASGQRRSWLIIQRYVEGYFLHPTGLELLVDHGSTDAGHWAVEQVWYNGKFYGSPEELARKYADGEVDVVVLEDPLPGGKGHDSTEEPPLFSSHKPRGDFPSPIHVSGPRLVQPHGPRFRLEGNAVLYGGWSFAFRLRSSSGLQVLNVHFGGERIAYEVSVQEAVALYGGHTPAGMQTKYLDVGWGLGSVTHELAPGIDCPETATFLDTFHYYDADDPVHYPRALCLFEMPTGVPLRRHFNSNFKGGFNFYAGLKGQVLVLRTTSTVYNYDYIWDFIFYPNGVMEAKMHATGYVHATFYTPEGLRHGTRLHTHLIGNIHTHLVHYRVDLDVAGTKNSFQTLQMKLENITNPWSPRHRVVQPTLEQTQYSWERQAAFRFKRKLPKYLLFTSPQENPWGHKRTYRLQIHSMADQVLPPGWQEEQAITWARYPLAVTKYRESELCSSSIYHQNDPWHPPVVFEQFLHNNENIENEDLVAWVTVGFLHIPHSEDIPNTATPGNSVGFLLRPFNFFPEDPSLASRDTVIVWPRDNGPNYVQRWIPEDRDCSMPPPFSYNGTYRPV
As to the kind of experiment: Amplex Red HRP-coupled amine oxidase assay, recombinant human DAO. The settings on record: 1 mM putrescine substrate, read-out: Inhibitory activity (IC50, nM) DAO. In short, it runs like this:
(§1)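 Enzyme preincubated 60 min at 37 °C with compound (six-point curve, 1% DMSO final) in 50 mM sodium phosphate pH 7.4, then Amplex Red 400 μM and HRP 2 U/mL added with substrate: MAO-A 0.5 mM tyramine, MAO-B 1 mM benzylamine, DAO 1 mM putrescine. Resorufin fluorescence read after 1 h; IC50 by four-parameter logistic fit.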

For assay [2], the target named is T2, recombinant human MAO-B (monoamine oxidase-B) (Homo sapiens, UniProt P27338).
T2 construct: purchased Sigma-Aldrich
T2 sequence (P27338 1-520): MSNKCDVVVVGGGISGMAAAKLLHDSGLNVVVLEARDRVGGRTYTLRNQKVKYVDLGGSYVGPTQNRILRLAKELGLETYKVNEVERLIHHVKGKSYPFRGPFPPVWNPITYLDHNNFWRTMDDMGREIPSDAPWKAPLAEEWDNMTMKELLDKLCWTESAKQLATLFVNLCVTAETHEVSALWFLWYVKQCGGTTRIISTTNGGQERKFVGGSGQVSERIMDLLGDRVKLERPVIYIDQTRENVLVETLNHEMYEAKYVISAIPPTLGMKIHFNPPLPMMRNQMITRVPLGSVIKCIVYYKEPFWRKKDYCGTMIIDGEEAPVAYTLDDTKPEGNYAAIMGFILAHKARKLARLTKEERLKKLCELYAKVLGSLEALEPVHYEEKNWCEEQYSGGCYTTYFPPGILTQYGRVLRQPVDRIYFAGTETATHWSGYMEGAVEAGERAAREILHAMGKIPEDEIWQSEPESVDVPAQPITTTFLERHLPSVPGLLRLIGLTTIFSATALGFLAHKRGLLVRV
As to the kind of experiment: Amplex Red HRP-coupled amine oxidase assay, recombinant human MAO-B. As to conditions: 1 mM benzylamine substrate, read-out: Inhibitory activity (IC50, nM) MAO-B. In short, it runs like this: as §1

Assay [3] has as its target T3, recombinant human MAO-A (monoamine oxidase-A) (Homo sapiens, UniProt P21397).
T3 construct: purchased Sigma-Aldrich
T3 sequence (P21397 1-527): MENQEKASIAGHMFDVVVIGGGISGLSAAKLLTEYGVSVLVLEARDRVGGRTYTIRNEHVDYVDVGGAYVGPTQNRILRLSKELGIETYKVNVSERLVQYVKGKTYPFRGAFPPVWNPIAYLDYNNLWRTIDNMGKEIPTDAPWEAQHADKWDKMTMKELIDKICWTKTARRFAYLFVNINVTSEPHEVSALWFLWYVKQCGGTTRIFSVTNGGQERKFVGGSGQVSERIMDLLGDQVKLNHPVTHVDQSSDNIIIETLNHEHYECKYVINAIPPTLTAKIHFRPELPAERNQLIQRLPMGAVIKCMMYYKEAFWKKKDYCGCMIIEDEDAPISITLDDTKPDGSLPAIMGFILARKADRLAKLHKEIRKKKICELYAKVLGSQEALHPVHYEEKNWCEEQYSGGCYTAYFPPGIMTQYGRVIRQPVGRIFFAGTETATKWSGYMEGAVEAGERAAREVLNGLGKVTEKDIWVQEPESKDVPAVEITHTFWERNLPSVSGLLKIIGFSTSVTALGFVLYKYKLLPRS
The experiment in a line: Amplex Red HRP-coupled amine oxidase assay, recombinant human MAO-A. As to conditions: 0.5 mM tyramine substrate, read-out: Inhibitory activity (IC50, nM) MAO-A. The protocol: The activities of the compounds according to the present invention against recombinant human Lysyl Oxidase-Like 2 (recombinant human LOXL2, R&D systems) were evaluated by measuring the levels of hydrogen peroxide in the HRP (horseradish peroxidase) coupled reactions, with the Amplex Red Hydrogen Peroxide Assay Kit (Molecular Probes, Invitrogen, USA). The tests were carried out at 37° C., and putrescine was used as a substrate. In the HRP coupling reaction, the oxidation of 10-acetyl-3,7-dihydroxyphenoxazine (Amplex Red reagent) by hydrogen peroxide generates a fluorescent product, i.e., resorufin. Briefly, the test compounds were dissolved in dimethyl sulfoxide (DMSO) at a concentration of 20 mM. Dose-response measurements were carried out by serial dilutions in DMSO to generate a six-point curve. The upper concentration was adjusted according to the potency of the compound, and then diluted with the reaction buffer to obtain a final DMSO concentration of 1%. Purified human LOXL2 in 50 mM sodium phosphate buffer (pH7.4) was added to each well of a 96 well black plate. The test compounds dissolved in DMSO were incubated with the human LOXL2 enzyme at 37° C. for 60 minutes. After the incubation for 60 minutes, a reaction mixture containing 400 μM Amplex Red reagent, 30 mM putrescine, and 2 U/mL HRP in 50 mM sodium phosphate buffer (pH 7.4) was added to each well. Fluorescence was measured with a microplate reader (Flexstation3, Molecular Devices), under the conditions of excitation at 530 nm and emission at 590 nm, 1 hour after the addition of the mixture. Inhibition by each compound was measured as % reduction in signal, compared to the control without an inhibitor (diluted DMSO only). The data were fixed to a four-variable logistic model, and […] values were calculated using the GraphPad Prism program.
And, the activities of the compounds according to the present invention against recombinant human MAO-A (monoamine oxidase-A, Sigma-Aldrich) and recombinant human MAO-B (monoamine oxidase-B, Sigma-Aldrich) were evaluated in a similar manner to the activity evaluation method for recombinant human LOXL2, using 0.5 mM tyramine and 1 mM benzylamine as a substrate, respectively. In addition, the activities of the compounds according to the present invention against recombinant human DAO (diamine oxidase, R&D systems) were evaluated in a similar manner to the activity evaluation method for recombinant human LOXL2, using 1 mM putrescine as a substrate.

Assay [4] deals with T4, recombinant human Lysyl Oxidase-Like 2 (LOXL2) (Homo sapiens, UniProt Q9Y4K0).
T4 construct: purchased R&D systems
T4 sequence (Q9Y4K0 26-774): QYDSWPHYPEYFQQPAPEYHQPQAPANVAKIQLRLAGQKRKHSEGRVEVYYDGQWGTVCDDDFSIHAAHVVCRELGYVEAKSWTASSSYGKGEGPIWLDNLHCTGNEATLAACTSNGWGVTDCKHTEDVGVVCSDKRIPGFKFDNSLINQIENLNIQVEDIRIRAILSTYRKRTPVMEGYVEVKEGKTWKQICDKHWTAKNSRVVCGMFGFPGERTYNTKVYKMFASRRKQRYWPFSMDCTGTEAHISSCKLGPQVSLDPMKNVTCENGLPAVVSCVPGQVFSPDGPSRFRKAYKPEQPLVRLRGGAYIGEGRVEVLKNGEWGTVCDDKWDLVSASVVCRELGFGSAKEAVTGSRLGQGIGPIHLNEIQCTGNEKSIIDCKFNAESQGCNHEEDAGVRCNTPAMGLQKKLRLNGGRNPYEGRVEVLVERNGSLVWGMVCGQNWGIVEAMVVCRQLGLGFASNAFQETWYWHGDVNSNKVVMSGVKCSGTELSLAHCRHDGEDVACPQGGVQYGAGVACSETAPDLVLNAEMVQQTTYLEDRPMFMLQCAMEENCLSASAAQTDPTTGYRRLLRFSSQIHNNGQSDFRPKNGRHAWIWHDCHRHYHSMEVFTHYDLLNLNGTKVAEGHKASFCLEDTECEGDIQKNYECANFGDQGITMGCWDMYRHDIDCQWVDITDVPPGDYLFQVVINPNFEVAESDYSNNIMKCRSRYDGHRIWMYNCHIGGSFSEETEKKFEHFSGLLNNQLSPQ
The experiment in a line: Amplex Red HRP-coupled amine oxidase assay, recombinant human LOXL2. As to conditions: 60 min incubation with enzyme at 37° C., putrescine substrate, read-out: Inhibitory activity (IC50, nM) human LOXL2. In short, it runs like this:
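Putrescine substrate (30 mM) in 50 mM sodium phosphate pH 7.4, 37 °C; compounds preincubated 60 min with enzyme, 1% DMSO final, six-point curves. H2O2 detected via 400 μM Amplex Red/2 U/mL HRP, fluorescence (ex 530/em 590 nm) after 1 h; IC50 from four-parameter logistic fit of % signal reduction.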

Take `CNS(=O)(=O)c1cccc(-c2cc(C(=O)OC)cc3c2nc(C)n3C/C(F)=C/CN)c1` [Example 73, methyl (Z)-1-(4-amino-2-fluorobut-2-en-1-yl)-2-methyl-4-(3-(N-methylsulfamoyl)phenyl)-1H-benzo[d]imidazol-6-carboxylate hydrochloride]: the IC50 is 1810 nM in assay [1], above 100000 nM in assay [2], 47900 nM in assay [3] and 58 nM in assay [4].

Regarding `Cc1nc2c(-c3cccc(S(=O)(=O)N4CCCC4)c3)cccc2n1C/C(F)=C/CN` [Example 60, (Z)-3-fluoro-4-(2-methyl-4-(3-(pyrrolidin-1-ylsulfonyl)phenyl)-1H-benzo[d]imidazol-1-yl)but-2-en-1-amine hydrochloride], the IC50 was 636 nM in assay [1], above 100000 nM in assay [2], 64200 nM in assay [3] and 92 nM in assay [4].

`CS(=O)(=O)c1cccc(-c2cc(F)cc3c2ncn3C/C(F)=C/CN)c1` [Example 3, (Z)-3-fluoro-4-(6-fluoro-4-(3-(methylsulfonyl)phenyl)-1H-benzo[d]imidazol-1-yl)but-2-en-1-amine hydrochloride]: the IC50 is 2940 nM in assay [1], 71200 nM in assay [2], above 100000 nM in assay [3] and 54 nM in assay [4].

Consider `COC(=O)c1cc(-c2cccc(S(=O)(=O)N3CCCC3)c2)c2nc(C)n(C/C(F)=C/CN)c2c1` [Example 70, methyl (Z)-1-(4-amino-2-fluorobut-2-en-1-yl)-2-methyl-4-(3-(pyrrolidin-1-ylsulfonyl)phenyl)-1H-benzo[d]imidazol-6-carboxylate hydrochloride], for which the IC50 in assay [1] is 2500 nM; in assay [2] it was above 100000 nM; in assay [3] it was 10300 nM; in assay [4], 60 nM.

On to `NC/C=C(\F)Cn1cnc2c(-c3cncc(F)c3)cc(C(F)(F)F)cc21` [Example 173, (Z)-3-fluoro-4-(4-(5-fluoropyridin-3-yl)-6-(trifluoromethyl)-1H-benzo[d]imidazol-1-yl)but-2-en-1-amine hydrochloride], for which the IC50 was 3730 nM in assay [1], above 100000 nM in assay [2], 15400 nM in assay [3] and 269 nM in assay [4].

`CNS(=O)(=O)c1ccc(OC)c(-c2cc(C(=O)OC)cc3c2nnn3C/C(F)=C/CN)c1` [Example 117, methyl (Z)-1-(4-amino-2-fluorobut-2-en-1-yl)-4-(2-methoxy-5-(N-methylsulfamoyl)phenyl)-1H-benzo[d][1,2,3]triazol-6-carboxylate hydrochloride]: the half-inhibitory concentration (IC50) in assay [1] is 4440 nM; in assay [2], 46600 nM; in assay [3], above 100000 nM; in assay [4], 11.9 nM.

Turning to `NC/C=C(\F)Cn1cnc2c(-c3cccc(S(=O)(=O)N4CCCC4)c3)cc(F)cc21` [Example 7, (Z)-3-fluoro-4-(6-fluoro-4-(3-(pyrrolidin-1-ylsulfonyl)phenyl)-1H-benzo[d]imidazol-1-yl)but-2-en-1-amine hydrochloride], the IC50 was 2410 nM in assay [1], above 100000 nM in assay [2], 26500 nM in assay [3] and 35 nM in assay [4].

`NC/C=C(\F)Cn1cnc2c(-c3cncc(Cl)c3)cc(C(F)(F)F)cc21` [Example 174, (Z)-4-(4-(5-chloropyridin-3-yl)-6-(trifluoromethyl)-1H-benzo[d]imidazol-1-yl)-3-fluoro-but-2-en-1-amine hydrochloride]: the IC50 in assay [1] is 2210 nM; in assay [2], above 100000 nM; in assay [3] it was 81200 nM; in assay [4], 304 nM.
